System: 192522-019-R-J2-PDC complex tumor spheroid viability
Assay: Anticancer human tumor 192522-019-R-J2-PDC patient-derived colon adenocarcinoma cell line growth inhibition [POLQ]
Settings: for IC50: curve of first compound; for viability, T/C: stronger effect = lower value
Method in brief: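 Patient-derived tumour cells were co-cultured with HUVEC and mesenchymal stem cells as multicellular spheroids at 37 °C. They were treated with POLQ inhibitors (novobiocin, ART-558, RP6685) alone or combined with other agents. Top concentrations were at or near clinical Cmax (otherwise 10 microM; SN-38 at 1 microM), decreasing in half-log steps.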

[1] = second compound 0.0316 µM, first compound 0.0316 µM
[2] = second compound 0.0316 µM, first compound 0.1 µM
[3] = second compound 0.0316 µM, first compound 0.316 µM
[4] = second compound 0.0316 µM, first compound 1 µM
[5] = second compound 0.0316 µM, first compound 3.16 µM
[6] = second compound 0.0316 µM, first compound 10 µM
[7] = second compound 0.1 µM, first compound 0.0316 µM
[8] = second compound 0.1 µM, first compound 0.1 µM
[9] = second compound 0.1 µM, first compound 0.316 µM
[10] = second compound 0.1 µM, first compound 1 µM
[11] = second compound 0.1 µM, first compound 3.16 µM
[12] = second compound 0.1 µM, first compound 10 µM
[13] = second compound 0.316 µM, first compound 0.0316 µM
[14] = second compound 0.316 µM, first compound 0.1 µM
[15] = second compound 0.316 µM, first compound 0.316 µM
[16] = second compound 0.316 µM, first compound 1 µM
[17] = second compound 0.316 µM, first compound 3.16 µM
[18] = second compound 0.316 µM, first compound 10 µM
[19] = second compound 1 µM, first compound 0.0316 µM
[20] = second compound 1 µM, first compound 0.1 µM
[21] = second compound 1 µM, first compound 0.316 µM
[22] = second compound 1 µM, first compound 1 µM
[23] = second compound 1 µM, first compound 3.16 µM
[24] = second compound 1 µM, first compound 10 µM
[25] = second compound 3.16 µM, first compound 0.0316 µM
[26] = second compound 3.16 µM, first compound 0.1 µM
[27] = second compound 3.16 µM, first compound 0.316 µM
[28] = second compound 3.16 µM, first compound 1 µM
[29] = second compound 3.16 µM, first compound 3.16 µM
[30] = second compound 3.16 µM, first compound 10 µM
[31] = second compound 10 µM, first compound 0.0316 µM
[32] = second compound 10 µM, first compound 0.1 µM
[33] = second compound 10 µM, first compound 0.316 µM
[34] = second compound 10 µM, first compound 1 µM
[35] = second compound 10 µM, first compound 3.16 µM
[36] = second compound 10 µM, first compound 10 µM
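Note: spheroids exposed to drugs for seven days before reading.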
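Throughout, for viability, T/C: 100% = DMSO vehicle control viability in luminescence.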

For `COc1cccc2c1C(=O)c1c(O)c3c(c(O)c1C2=O)CC(O)(C(=O)CO)CC3OC1CC(N)C(O)C(C)O1` (stereo not drawn) + Cc1cccc(N(C)C(=O)C2C(O)CCN2c2nc(C)cc(C(F)(F)F)c2C#N)c1, the IC50 (second compound 0.0316 µM) was greater than 10 µM, the IC50 (second compound 0.1 µM) was greater than 10 µM and the IC50 (second compound 0.316 µM) was greater than 10 µM. The IC50 (second compound 1 µM) was greater than 10 µM, the IC50 (second compound 3.16 µM) was greater than 10 µM and the IC50 (second compound 10 µM) was greater than 10 µM. For the same molecule, the viability, T/C [1] was 99.3%, the viability, T/C [2] was 79.8% and the viability, T/C [3] was 73.9%. The viability, T/C [4] was 86.3%, the viability, T/C [5] was 69.6% and the viability, T/C [6] was 57.2%. It also gave a viability, T/C [7] of 94%, a viability, T/C [8] of 85.6% and a viability, T/C [9] of 72.5%. For the same molecule, the viability, T/C [10] was 83.8%, the viability, T/C [11] was 69.1% and the viability, T/C [12] was 67.7%. The viability, T/C [13] was 98.3%, the viability, T/C [14] was 91.1% and the viability, T/C [15] was 69.4%. It also gave a viability, T/C [16] of 77%, a viability, T/C [17] of 65.2% and a viability, T/C [18] of 63.3%. It also gave a viability, T/C [19] of 110%, a viability, T/C [20] of 92% and a viability, T/C [21] of 76.5%. It also gave a viability, T/C [22] of 83.7%, a viability, T/C [23] of 75.5% and a viability, T/C [24] of 61.1%. The viability, T/C [25] was 96.5%, the viability, T/C [26] was 99.9% and the viability, T/C [27] was 74.2%. For the same molecule, the viability, T/C [28] was 69.7%, the viability, T/C [29] was 70.9% and the viability, T/C [30] was 60.3%. The viability, T/C [31] was 102%, the viability, T/C [32] was 79.1% and the viability, T/C [33] was 69.9%. It also gave a viability, T/C [34] of 62.7%, a viability, T/C [35] of 67.3% and a viability, T/C [36] of 49.8%.
In the case of `Nc1ccn(C2OC(CO)C(O)C2(F)F)c(=O)n1` (stereo not drawn) + Cc1cccc(N(C)C(=O)C2C(O)CCN2c2nc(C)cc(C(F)(F)F)c2C#N)c1, the IC50 (second compound 0.0316 µM) is reported as greater than 10 µM, the IC50 (second compound 0.1 µM) is reported as greater than 10 µM and the IC50 (second compound 0.316 µM) is reported as greater than 10 µM. For the same molecule, the IC50 (second compound 1 µM) was greater than 10 µM, the IC50 (second compound 3.16 µM) was greater than 10 µM and the IC50 (second compound 10 µM) was greater than 10 µM. The viability, T/C [1] was 95.9%, the viability, T/C [2] was 81.6% and the viability, T/C [3] was 81.8%. The viability, T/C [4] was 76.2%, the viability, T/C [5] was 70.3% and the viability, T/C [6] was 57.2%. For the same molecule, the viability, T/C [7] was 95.9%, the viability, T/C [8] was 95.7% and the viability, T/C [9] was 80.6%. It also gave a viability, T/C [10] of 76.5%, a viability, T/C [11] of 66.6% and a viability, T/C [12] of 55.5%. The viability, T/C [13] was 108%, the viability, T/C [14] was 95.3% and the viability, T/C [15] was 83.2%. For the same molecule, the viability, T/C [16] was 76.3%, the viability, T/C [17] was 65.8% and the viability, T/C [18] was 57.6%. The viability, T/C [19] was 104%, the viability, T/C [20] was 90% and the viability, T/C [21] was 80.6%. It also gave a viability, T/C [22] of 79.9%, a viability, T/C [23] of 72.3% and a viability, T/C [24] of 56.5%. The viability, T/C [25] was 105%, the viability, T/C [26] was 98.6% and the viability, T/C [27] was 88.6%. It also gave a viability, T/C [28] of 74%, a viability, T/C [29] of 77% and a viability, T/C [30] of 59.7%. It also gave a viability, T/C [31] of 108%, a viability, T/C [32] of 83.4% and a viability, T/C [33] of 80.5%. It also gave a viability, T/C [34] of 74.3%, a viability, T/C [35] of 76.5% and a viability, T/C [36] of 62.3%.
With `O=C(c1cc(Cc2n[nH]c(=O)c3ccccc23)ccc1F)N1CCN(C(=O)C2CC2)CC1` + Cc1cccc(N(C)C(=O)C2C(O)CCN2c2nc(C)cc(C(F)(F)F)c2C#N)c1 the IC50 (second compound 0.0316 µM) was greater than 10 µM, the IC50 (second compound 0.1 µM) was greater than 10 µM and the IC50 (second compound 0.316 µM) was greater than 10 µM. For the same molecule, the IC50 (second compound 1 µM) was greater than 10 µM, the IC50 (second compound 3.16 µM) was greater than 10 µM and the IC50 (second compound 10 µM) was greater than 10 µM. The viability, T/C [1] was 101%, the viability, T/C [2] was 82.3% and the viability, T/C [3] was 98%. For the same molecule, the viability, T/C [4] was 88.1%, the viability, T/C [5] was 98.5% and the viability, T/C [6] was 92.6%. It also gave a viability, T/C [7] of 107%, a viability, T/C [8] of 92.8% and a viability, T/C [9] of 107%. It also gave a viability, T/C [10] of 95.9%, a viability, T/C [11] of 100% and a viability, T/C [12] of 101%. For the same molecule, the viability, T/C [13] was 97.8%, the viability, T/C [14] was 94.9% and the viability, T/C [15] was 101%. It also gave a viability, T/C [16] of 96.1%, a viability, T/C [17] of 106% and a viability, T/C [18] of 93.2%. For the same molecule, the viability, T/C [19] was 96.1%, the viability, T/C [20] was 106% and the viability, T/C [21] was 104%. The viability, T/C [22] was 96.9%, the viability, T/C [23] was 111% and the viability, T/C [24] was 106%. The viability, T/C [25] was 102%, the viability, T/C [26] was 111% and the viability, T/C [27] was 107%. The viability, T/C [28] was 91.3%, the viability, T/C [29] was 103% and the viability, T/C [30] was 111%. For the same molecule, the viability, T/C [31] was 99.9%, the viability, T/C [32] was 98.5% and the viability, T/C [33] was 103%. The viability, T/C [34] was 93.7%, the viability, T/C [35] was 116% and the viability, T/C [36] was 109%.
Work on `O=c1[nH]cc(F)c(=O)[nH]1` + Cc1cccc(N(C)C(=O)C2C(O)CCN2c2nc(C)cc(C(F)(F)F)c2C#N)c1 yielded an IC50 (second compound 0.0316 µM) greater than 10 µM, an IC50 (second compound 0.1 µM) greater than 10 µM and an IC50 (second compound 0.316 µM) greater than 10 µM. It also gave an IC50 (second compound 1 µM) greater than 10 µM, an IC50 (second compound 3.16 µM) greater than 10 µM and an IC50 (second compound 10 µM) greater than 10 µM. The viability, T/C [1] was 111%, the viability, T/C [2] was 88.5% and the viability, T/C [3] was 76.8%. The viability, T/C [4] was 87.2%, the viability, T/C [5] was 91.3% and the viability, T/C [6] was 72.4%. The viability, T/C [7] was 103%, the viability, T/C [8] was 92.8% and the viability, T/C [9] was 84.6%. The viability, T/C [10] was 81.7%, the viability, T/C [11] was 81% and the viability, T/C [12] was 85.3%. The viability, T/C [13] was 95.5%, the viability, T/C [14] was 95.9% and the viability, T/C [15] was 85%. For the same molecule, the viability, T/C [16] was 80.7%, the viability, T/C [17] was 78% and the viability, T/C [18] was 86.1%. The viability, T/C [19] was 96.8%, the viability, T/C [20] was 92.9% and the viability, T/C [21] was 87.1%. For the same molecule, the viability, T/C [22] was 96.1%, the viability, T/C [23] was 89% and the viability, T/C [24] was 82.9%. The viability, T/C [25] was 112%, the viability, T/C [26] was 88.9% and the viability, T/C [27] was 87.1%. For the same molecule, the viability, T/C [28] was 81.4%, the viability, T/C [29] was 93.1% and the viability, T/C [30] was 78.6%. For the same molecule, the viability, T/C [31] was 106%, the viability, T/C [32] was 89.1% and the viability, T/C [33] was 81.6%. For the same molecule, the viability, T/C [34] was 83.6%, the viability, T/C [35] was 88.3% and the viability, T/C [36] was 75.9%.

Source: PubChem BioAssay AID1963850 (Molecular Pharmacology Branch, DTP, NCI, 2024)
